The target in series [1] is CYP2C9 (Homo sapiens, UniProt P11712). Briefly: CYP activity in perfused liver tissue, diclofenac substrate.
Series [2] concerns the target CYP3A4 (Homo sapiens, UniProt P08684). Briefly: CYP activity in perfused liver tissue, midazolam substrate.
Where [3] appears, read: initial 30-min interval, dropped continuously thereafter.
Setting [4] is: late (1-6 h), cirrhotic vs. non-cirrhotic liver.

Chain of CYP2C9 (P11712 whole entry, the tested form may be a part): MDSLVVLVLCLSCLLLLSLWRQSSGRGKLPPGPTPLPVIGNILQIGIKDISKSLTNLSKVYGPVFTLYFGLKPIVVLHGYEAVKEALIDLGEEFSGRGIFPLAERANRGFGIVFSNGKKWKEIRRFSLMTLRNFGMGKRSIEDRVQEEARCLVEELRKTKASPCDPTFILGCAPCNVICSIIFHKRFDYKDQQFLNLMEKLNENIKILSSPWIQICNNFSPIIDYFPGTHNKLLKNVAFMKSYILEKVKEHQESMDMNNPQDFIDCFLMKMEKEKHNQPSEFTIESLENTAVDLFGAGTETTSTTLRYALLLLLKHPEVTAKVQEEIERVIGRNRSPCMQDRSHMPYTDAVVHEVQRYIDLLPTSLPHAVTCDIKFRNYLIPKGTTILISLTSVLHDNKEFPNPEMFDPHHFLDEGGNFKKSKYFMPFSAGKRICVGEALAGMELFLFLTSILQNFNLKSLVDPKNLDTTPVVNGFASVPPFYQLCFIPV
Chain of CYP3A4 (P08684 whole entry, the tested form may be a part): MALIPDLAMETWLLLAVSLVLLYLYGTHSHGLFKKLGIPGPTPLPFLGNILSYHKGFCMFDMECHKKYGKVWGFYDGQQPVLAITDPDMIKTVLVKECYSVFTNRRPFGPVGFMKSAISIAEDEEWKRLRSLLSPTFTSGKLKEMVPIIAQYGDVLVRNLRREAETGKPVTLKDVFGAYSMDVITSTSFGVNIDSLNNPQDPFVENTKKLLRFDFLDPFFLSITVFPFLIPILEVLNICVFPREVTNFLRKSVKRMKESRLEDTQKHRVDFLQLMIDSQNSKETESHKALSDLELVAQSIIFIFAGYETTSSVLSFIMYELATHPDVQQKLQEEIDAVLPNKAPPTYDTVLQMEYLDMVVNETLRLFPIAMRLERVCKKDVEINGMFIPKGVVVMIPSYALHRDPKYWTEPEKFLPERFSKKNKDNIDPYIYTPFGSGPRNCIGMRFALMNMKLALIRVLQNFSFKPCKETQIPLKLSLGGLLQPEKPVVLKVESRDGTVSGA

For the compound `O=C(O)Cc1ccccc1Nc1c(Cl)cc(O)cc1Cl` [OH-diclofenac, 4'-hydroxydiclofenac], the “formation of phase-I metabolite” value in series [1] (setting [3]) is on record as “formed quite rapidly”. Further, the “AUC of phase-I product, CL tissue higher than NC tissue” value in series [1] (setting [4]) was 26.9%.

Turning to `OCc1ncc2n1-c1ccc(Cl)cc1C(c1ccccc1F)=NC2` [OH-midazolam, 1'-hydroxymidazolam], the “formation of phase-I metabolite” value in series [2] (setting [3]) is “formed quite rapidly”. The “AUC of phase-I product, CL tissue higher than NC tissue” value in series [2] (setting [4]) turned out to be 53.8%.

The values are drawn from EP2819510B1, “ORGAN PERFUSION SYSTEM” (Rodos BioTarget GmbH, priority 2012, dated 2013).
